Data from patent US20100285959A1, “HERBICIDAL MIXTURES” (priority 2006, published 2010).

Key:
spring wheat (TRZAS) = experiment: Test 4 field trial, postemergence; settings: clodinafop 56 or fenoxaprop 90 g a.i./ha alone
Procedure: (§1) A field trial was conducted to evaluate the effects of mixtures of Compound 2 with commercial herbicides on spring wheat (TRZAS, Triticum aestivum L.) and several weed species. Wheat seeds (cv. ‘AC Intrepid’) were planted in late spring season, 3.8 cm deep in a loam soil having 2.7% organic matter and a pH of 7. Plots were 6 m long by 2.5 m wide. The field was managed using no-till practices. The plots were arranged in a randomized complete block design with each treatment being replicated four times. Treatments were applied postemergence 25 days after planting using a backpack sprayer delivering a spray volume of 55 L/ha using a pressure of 276 kPa. […] Compound 2 and clodinafop treatments, alone and in combination, also included a surfactant. Weed species present in the experimental plots in sufficient quantity to be evaluated included wild oat (AVEFA, Avena fatua L.), common lambsquarters (CHEAL, Chenopodium album L.), kochia (KCHSC, Kochia scoparia (L.) Schrad.), wild buckwheat (POLCO, Polygonum convolvulus L.), Russian thistle (SASKR, Salsola kali L. ssp. ruthenica (Iljin) Soo), and field pennycress (THLAR, Thlaspi arvense L.). […] Common lambsquarters was evaluated only at 14 days after application. […] Results are the means of the four replicates.

wild oat (AVEFA) = experiment: Test 4 field trial, postemergence; type: in vivo, Avena fatua; parameters: scale not given here; settings: clodinafop 56 or fenoxaprop 90 g a.i./ha alone
Procedure: as §1

[1] = tested on: common lambsquarters (CHEAL); experiment: Test 4 field trial, postemergence; type: in vivo, Chenopodium album; settings: clodinafop 56 or fenoxaprop 90 g a.i./ha alone
wild buckwheat (POLCO) = experiment: Test 4 field trial, postemergence; type: in vivo, Polygonum convolvulus; settings: clodinafop 56 or fenoxaprop 90 g a.i./ha alone
Procedure: as §1

Russian thistle (SASKR) = experiment: Test 4 field trial, postemergence; type: in vivo, Salsola kali; parameters: scale not given here; settings: clodinafop 56 or fenoxaprop 90 g a.i./ha alone
Procedure: as §1

field pennycress (THLAR) = experiment: Test 4 field trial, postemergence; type: in vivo, Thlaspi arvense; parameters: scale not given here; settings: clodinafop 56 or fenoxaprop 90 g a.i./ha alone
Procedure: as §1

velvetleaf (ABUTH) = experiment: Test 14 field trial, preemergence, growth as percent of control; type: in vivo, Abutilon theophrasti
Text: (§2) Corn seeds (hybrid ‘Pioneer 31G96 RR’) were planted in mid spring season, 3.8 cm deep in a clay loam soil having 2% organic matter and a pH of 6.6. Plots were 6.1 m long by 3.0 m wide with rows spaced 76 cm apart. Seeds were spaced 15 cm apart within the rows. The field was managed using conventional tillage practices. […] Yellow nutsedge was only evaluated 19 and 28 days after application, and ivyleaf morningglory could only be evaluated 28 days after application. […] Results are the means of the three replicates. This growth inhibition data was converted to results in the form of “plant growth as a percent of control plant growth” using the calculation “100 minus growth inhibition”. […] For “growth as a percent of control” data, Colby's Equation calculates the expected additive effect of herbicidal mixtures having two active ingredients as follows:
(§3) Ga+b=GaGb/100 • wherein Ga+b is the growth as a percent of control of plants treated with the mixture expected from additive contribution of the individual components, • Ga is the observed growth as a percent of control of plants treated with the first active ingredient at the same use rate as in the mixture, and • Gb is the observed growth as a percent of control of plants treated with the second active ingredient at the same use rate as in the mixture. For mixtures having three active ingredients, Colby's Equation to calculate the expected additive effect of herbicidal mixtures is as follows:
(§4) Ga+b+c=GaGbGc/10,000 • wherein Ga and Gb are as defined above and • Ga+b+c is the growth as a percent of control of plants treated with the mixture expected from additive contribution of the individual components, and • Gc is the observed growth as a percent of control of plants treated with the third active ingredient at the same use rate as in the mixture. When these two forms of Colby's Equation are used, if the observed effects on weeds are less than the expected values, the mixture is synergistic.

common ragweed (AMBEL) = experiment: as above; type: in vivo, Ambrosia artemisiifolia
Text: as §2, §3, §4

giant ragweed (AMBTR) = experiment: as above; type: in vivo, Ambrosia trifida
Text: as §2, §3, §4

yellow nutsedge (CYPES) = experiment: as above; type: in vivo, Cyperus esculentus
Text: as §2, §3, §4

jimsonweed (DATST) = experiment: as above; type: in vivo, Datura stramonium
Text: as §2, §3, §4

[2] = tested on: ivyleaf morningglory (IPOHE); experiment: as above; type: in vivo, Ipomoea hederacea; settings: 28 DAA
Text: as §2, §3, §4

[3] = tested on: ladysthumb smartweed (POLPE); experiment: as above; type: in vivo, Polygonum persicaria
Text: as §2, §3, §4

giant foxtail (SETFA) = experiment: as above; type: in vivo, Setaria faberi
Text: as §2, §3, §4

For CC(Oc1ccc(Oc2nc3ccc(Cl)cc3o2)cc1)C(=O)O (stereo not drawn) [Fenoxaprop], the “TRZAS Obs” value (spring wheat (TRZAS); 14 DAA) was 0, the “TRZAS Obs” value (spring wheat (TRZAS); 35 DAA) was 0 and the “TRZAS Obs” value (spring wheat (TRZAS); 55 DAA) was 0. For the same compound, the “AVEFA Obs” value (wild oat (AVEFA); 14 DAA) was 96, the “AVEFA Obs” value (wild oat (AVEFA); 35 DAA) was 96 and the “AVEFA Obs” value (wild oat (AVEFA); 55 DAA) was 98. For the same compound, the “CHEAL Obs” value ([1]; 14 DAA) was 0, the “CHEAL Obs” value ([1]; 35 DAA) was 0 and the “POLCO Obs” value (wild buckwheat (POLCO); 14 DAA) was 0. For the same compound, the “POLCO Obs” value (wild buckwheat (POLCO); 35 DAA) was 0, the “SASKR Obs” value (Russian thistle (SASKR); 14 DAA) was 0 and the “SASKR Obs” value (Russian thistle (SASKR); 35 DAA) was 0. For the same compound, the “THLAR Obs” value (field pennycress (THLAR); 14 DAA) was 0 and the “THLAR Obs” value (field pennycress (THLAR); 35 DAA) was 0.
In the case of CCS(=O)(=O)c1cccnc1S(=O)(=O)NC(=O)Nc1nc(OC)cc(OC)n1 [Rimsulfuron], the “Obs growth % of control” value (velvetleaf (ABUTH); 19 DAA, 12 g a.i./ha) is reported as 78%, the “Obs growth % of control” value (velvetleaf (ABUTH); 19 DAA, 24 g a.i./ha) is reported as 62% and the “Obs growth % of control” value (velvetleaf (ABUTH); 19 DAA, 36 g a.i./ha) is reported as 52%. The “Obs growth % of control” value (velvetleaf (ABUTH); 28 DAA, 12 g a.i./ha) was 53%, the “Obs growth % of control” value (velvetleaf (ABUTH); 28 DAA, 24 g a.i./ha) was 13% and the “Obs growth % of control” value (velvetleaf (ABUTH); 28 DAA, 36 g a.i./ha) was 15%. For the same compound, the “Obs growth % of control” value (velvetleaf (ABUTH); 56 DAA, 12 g a.i./ha) was 93%, the “Obs growth % of control” value (velvetleaf (ABUTH); 56 DAA, 24 g a.i./ha) was 65% and the “Obs growth % of control” value (velvetleaf (ABUTH); 56 DAA, 36 g a.i./ha) was 62%. The “Obs growth % of control” value (common ragweed (AMBEL); 19 DAA, 12 g a.i./ha) was 88%, the “Obs growth % of control” value (common ragweed (AMBEL); 19 DAA, 24 g a.i./ha) was 80% and the “Obs growth % of control” value (common ragweed (AMBEL); 19 DAA, 36 g a.i./ha) was 68%. For the same compound, the “Obs growth % of control” value (common ragweed (AMBEL); 28 DAA, 12 g a.i./ha) was 100%, the “Obs growth % of control” value (common ragweed (AMBEL); 28 DAA, 24 g a.i./ha) was 45% and the “Obs growth % of control” value (common ragweed (AMBEL); 28 DAA, 36 g a.i./ha) was 33%. For the same compound, the “Obs growth % of control” value (common ragweed (AMBEL); 56 DAA, 12 g a.i./ha) was 85%, the “Obs growth % of control” value (common ragweed (AMBEL); 56 DAA, 24 g a.i./ha) was 63% and the “Obs growth % of control” value (common ragweed (AMBEL); 56 DAA, 36 g a.i./ha) was 53%. For the same compound, the “Obs growth % of control” value (giant ragweed (AMBTR); 19 DAA, 12 g a.i./ha) was 88%, the “Obs growth % of control” value (giant ragweed (AMBTR); 19 DAA, 24 g a.i./ha) was 80% and the “Obs growth % of control” value (giant ragweed (AMBTR); 19 DAA, 36 g a.i./ha) was 75%. For the same compound, the “Obs growth % of control” value (giant ragweed (AMBTR); 28 DAA, 12 g a.i./ha) was 100%, the “Obs growth % of control” value (giant ragweed (AMBTR); 28 DAA, 24 g a.i./ha) was 60% and the “Obs growth % of control” value (giant ragweed (AMBTR); 28 DAA, 36 g a.i./ha) was 60%. The “Obs growth % of control” value (giant ragweed (AMBTR); 56 DAA, 12 g a.i./ha) was 90%, the “Obs growth % of control” value (giant ragweed (AMBTR); 56 DAA, 24 g a.i./ha) was 83% and the “Obs growth % of control” value (giant ragweed (AMBTR); 56 DAA, 36 g a.i./ha) was 68%. The “Obs growth % of control” value (yellow nutsedge (CYPES); 19 DAA, 12 g a.i./ha) was 85%, the “Obs growth % of control” value (yellow nutsedge (CYPES); 19 DAA, 24 g a.i./ha) was 85% and the “Obs growth % of control” value (yellow nutsedge (CYPES); 19 DAA, 36 g a.i./ha) was 70%. For the same compound, the “Obs growth % of control” value (yellow nutsedge (CYPES); 28 DAA, 12 g a.i./ha) was 83%, the “Obs growth % of control” value (yellow nutsedge (CYPES); 28 DAA, 24 g a.i./ha) was 60% and the “Obs growth % of control” value (yellow nutsedge (CYPES); 28 DAA, 36 g a.i./ha) was 50%. For the same compound, the “Obs growth % of control” value (jimsonweed (DATST); 19 DAA, 12 g a.i./ha) was 100%, the “Obs growth % of control” value (jimsonweed (DATST); 19 DAA, 24 g a.i./ha) was 93% and the “Obs growth % of control” value (jimsonweed (DATST); 19 DAA, 36 g a.i./ha) was 85%. The “Obs growth % of control” value (jimsonweed (DATST); 28 DAA, 12 g a.i./ha) was 100%, the “Obs growth % of control” value (jimsonweed (DATST); 28 DAA, 24 g a.i./ha) was 62% and the “Obs growth % of control” value (jimsonweed (DATST); 28 DAA, 36 g a.i./ha) was 48%. For the same compound, the “Obs growth % of control” value (jimsonweed (DATST); 56 DAA, 12 g a.i./ha) was 100%, the “Obs growth % of control” value (jimsonweed (DATST); 56 DAA, 24 g a.i./ha) was 92% and the “Obs growth % of control” value (jimsonweed (DATST); 56 DAA, 36 g a.i./ha) was 92%. The “Obs growth % of control” value ([2]; 12 g a.i./ha) was 100%, the “Obs growth % of control” value ([2]; 24 g a.i./ha) was 3% and the “Obs growth % of control” value ([2]; 36 g a.i./ha) was 43%. The “Obs growth % of control” value ([3]; 19 DAA, 12 g a.i./ha) was 82%, the “Obs growth % of control” value ([3]; 19 DAA, 24 g a.i./ha) was 58% and the “Obs growth % of control” value ([3]; 19 DAA, 36 g a.i./ha) was 32%. For the same compound, the “Obs growth % of control” value ([3]; 28 DAA, 12 g a.i./ha) was 100%, the “Obs growth % of control” value ([3]; 28 DAA, 24 g a.i./ha) was 33% and the “Obs growth % of control” value ([3]; 28 DAA, 36 g a.i./ha) was 35%. The “Obs growth % of control” value ([3]; 56 DAA, 12 g a.i./ha) was 100%, the “Obs growth % of control” value (giant foxtail (SETFA); 19 DAA, 12 g a.i./ha) was 32% and the “Obs growth % of control” value (giant foxtail (SETFA); 19 DAA, 24 g a.i./ha) was 33%. The “Obs growth % of control” value (giant foxtail (SETFA); 19 DAA, 36 g a.i./ha) was 7%, the “Obs growth % of control” value (giant foxtail (SETFA); 28 DAA, 12 g a.i./ha) was 33% and the “Obs growth % of control” value (giant foxtail (SETFA); 28 DAA, 24 g a.i./ha) was 9%. The “Obs growth % of control” value (giant foxtail (SETFA); 28 DAA, 36 g a.i./ha) was 5%, the “Obs growth % of control” value (giant foxtail (SETFA); 56 DAA, 12 g a.i./ha) was 70% and the “Obs growth % of control” value (giant foxtail (SETFA); 56 DAA, 24 g a.i./ha) was 40%. For the same compound, the “Obs growth % of control” value (giant foxtail (SETFA); 56 DAA, 36 g a.i./ha) was 28%.
